Patent US7092825B1, “Protein engineering” (The University of Queensland, priority 1998, dated 2006)
pKi: −log10 of the molar value. Positions of bridges follow the written chain, without caps; N, C: chain ends. Residues, ends and D or L forms follow the SMILES beside them.

Legend:
[1] = target: T1, human Growth Hormone Receptor (hGHR) (Homo sapiens, UniProt P10912); test: Growth Hormone proliferation assay (hGH-stimulated BaF3 cell proliferation, MTT); assay type: cell-based; details: inhibition of BaF3 cell proliferation in response to 0.5 ng/mL hGH; read-out: calculated Ki
T1 construct: expressed in transfected cells; host or cells: BaF-B03 (BaF3) pro-B cells
T1 sequence (P10912 19-638): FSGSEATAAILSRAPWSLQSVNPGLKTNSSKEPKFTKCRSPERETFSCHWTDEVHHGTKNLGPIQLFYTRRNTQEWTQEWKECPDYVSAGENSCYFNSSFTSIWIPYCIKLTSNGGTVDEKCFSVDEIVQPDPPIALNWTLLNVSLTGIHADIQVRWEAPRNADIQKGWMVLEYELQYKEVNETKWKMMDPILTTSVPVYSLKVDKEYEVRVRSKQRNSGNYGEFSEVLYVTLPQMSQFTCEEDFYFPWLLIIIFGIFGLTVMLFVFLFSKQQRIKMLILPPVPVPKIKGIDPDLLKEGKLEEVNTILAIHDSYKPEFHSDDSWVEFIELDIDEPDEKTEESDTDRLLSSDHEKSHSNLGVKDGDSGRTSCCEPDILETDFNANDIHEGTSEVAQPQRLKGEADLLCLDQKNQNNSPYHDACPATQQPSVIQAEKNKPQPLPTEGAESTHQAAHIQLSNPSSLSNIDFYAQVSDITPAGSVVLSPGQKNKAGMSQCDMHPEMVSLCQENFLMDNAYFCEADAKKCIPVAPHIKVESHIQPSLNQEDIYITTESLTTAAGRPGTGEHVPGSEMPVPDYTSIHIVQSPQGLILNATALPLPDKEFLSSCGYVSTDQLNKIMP
Method: SCY01 was tested for biological function by bioassay using the BaF3 cell line, which cells normally respond to GH. SCY01 was assayed at various concentrations to check its ability to inhibit BaF3 cell proliferation in response to either 0.5 ng/mL hGH, or as a control, 50 Units/mL IL-3.
BaF-B03 cells (a pro B cell line) that stably express the human Growth Hormone Receptor (hGHR) are used in this assay since they are able to elicit a GH-specific response at concentrations as low as 0.1 ng/mL hGH (4.54 pM). These cells also endogenously express the IL3 receptor and require IL3 or GM-CSF to survive in culture. The assay is based on that of Mossman, 1983, J. Immunol. Meth. 65 55, and involves the following procedure:— • (i) culture cells in RPMI-1640 medium supplemented with 10% (v/v) foetal bovine serum (FBS) and 100 units/mL IL3 under 5% CO2 at 37° C. Allow the culture to reach mid-log growth phase; • (ii) centrifuge cells at 500×g and wash with PBS to remove IL3 from the culture medium. Repeat the centrifugation and resuspend in 1 mL of RPMI-1640 plus 0.5% (v/v) FBS. […] Allow plate to rest in the dark for 5 minutes before reading; • (x) read plate at 595 nm on a microplate reader. Values obtained are directly proportional to cell number (as measured by mitochondrial dehydrogenase levels).

[2] = Blood serum stability test (RP-HPLC); assay type: in vitro ADME; details: 37° C.
Source text: Preliminary studies evaluated the bioavailability of SCY01 by exposing it to a variety of proteases (trypsin, chymotrypsin and pepsin) and blood serum proteins as described in MATERIALS AND METHODS. The results of the blood serum stability test are presented in Table 2, and the results of the enzyme stability tests are presented in Table 3. […] Thus emphasising the favourable chemical characteristics of disulfide-rich proteins.
Blood was collected in heparinised tubes by venapuncture. The blood was centrifuged at 5000 rpm for 20 mins and the serum decanted. The blood serum was stored at −20° C. A sample of the blood serum (900 μL) was incubated with 100 μL of the stock peptide solution (1 mg/mL in H2O) at 37° C. and aliquots (100 μL) removed at the required time. A solution of 50% CH3CN 0.1% TFA was added to precipitate the blood serum proteins and centrifuged at 13000 rpm for 5 mins. A sample of this solution (100 μL) was analysed by RP-HPLC (Vydac C18 218TP54 250×4.1 mm id 1%/min gradient H2O/CH3CN 0.1% TFA) to detect peptide digestion.

trypsin = test: Enzyme stability test, trypsin; assay type: in vitro ADME; details: trypsin 5% w:v, NH4HCO3 pH 8.3, 37° C.
Method: To the peptide solution (NH4HCO3, pH 8.3, 0.87 mg/mL) was added trypsin (5% w:v). Samples were incubated at 37° C. and aliquots removed at 0, 1, 3 and 18 hrs and analysed by RP-HPLC as above.

α-chymotrypsin = test: Enzyme stability test, chymotrypsin; assay type: in vitro ADME; details: chymotrypsin 5% w:v, NH4HCO3 pH 8.3, 37° C.
Method: To the stock peptide solution (100 μL) was added 900 μL NH4HCO3 (pH 8.3). Chymotrypsin was added to 5% w:v and incubated at 37° C. Aliquots were removed at 0 hr, 1 hr and 24 hrs and analysed by RP HPLC.

pepsin = test: Enzyme stability test, pepsin; assay type: in vitro ADME; details: pepsin 1% w:v, pH 2.2, 37° C.
Method: To the stock peptide solution (100 μL) was added H2O (800 μL) and 0.1 M HCl (100 μL) to pH 2.2. Pepsin was added to give a 1% w:v solution and incubated at 37° C. Aliquots were removed at 0 h, 1 h and 24 hrs and analysed by RP-HPLC.

Compound: CC[C@H](C)[C@@H]1NC(=O)[C@@H]2CSSC[C@H](NC(=O)[C@H](Cc3ccccc3)NC(=O)[C@H](C)N)C(=O)N[C@@H](CC(N)=O)C(=O)N[C@@H](CC(C)C)C(=O)N[C@@H](CCCNC(=N)N)C(=O)N[C@@H](CCCCN)C(=O)N[C@H]3CSSC[C@H](NC(=O)[C@H](CCCCN)NC(=O)[C@H](CC(=O)O)NC(=O)CNC1=O)C(=O)N[C@@H](CCC(=O)O)C(=O)N[C@H](C(=O)N[C@H](C(=O)N[C@@H](CCCCN)C(N)=O)C(C)C)CSSC[C@H](NC(=O)[C@H](CCCCN)NC(=O)[C@H](CC(=O)O)NC(=O)[C@H](CCC(N)=O)NC3=O)C(=O)N[C@@H](CCC(=O)O)C(=O)N[C@@H]([C@@H](C)O)C(=O)N[C@@H](Cc1ccccc1)C(=O)NCC(=O)N[C@@H](CC(C)C)C(=O)N[C@@H](CC(C)C)C(=O)NCC(=O)N[C@@H](CCCCN)C(=O)N2 [SCY01] (H-AFCNLRKCQDKCETFGLLGKCIGDKCECVK-NH2; disulfide 3-21, 8-26, 12-28)
- pKi [1]: ~3.70
- Blood serum stability test result, 0 hr ([2]; 0 hr): stable
- Blood serum stability test result, 1 hr ([2]; 1 hr): stable
- Blood serum stability test result, 24 hrs ([2]; 24 hrs): stable
- Enzyme stability test result, trypsin (trypsin): Stable over 18 hrs
- Enzyme stability test result, α-chymotrypsin (α-chymotrypsin): Stable over 18 hrs
- Enzyme stability test result, pepsin (pepsin): Stable over 18 hrs
